Patent US7897732B2, “Antibodies to heparin-binding growth factor (HBGF) polypeptides” (Childrens Hospital Research Foundation, priority 1997, dated 2011)

How the values were obtained:
[1] = [3H]heparin binding of synthetic CTGF polypeptides on nitrocellulose dot-blot; settings: 37.5 nmol polypeptide on nitrocellulose, 10 μCi/ml [3H]heparin, room temperature
Text: Eighteen synthetic polypeptides spanning the entire 103 C-terminal residues of CTGF were synthesized and received as a cleaved PepSet™ from Chiron Mimotopes (Clayton, Victoria, Australia). All polypeptides were synthesized with acetylated N-termini and amidated C-termini except CTGF-(247-255) and CTGF-(247-260), which were synthesized with free N-terminal amines, and CTGF-(326-349) and CTGF-(339-349), which were synthesized with acid C-termini (Table 3).
All polypeptides contained one or no Cys residues; Cys^292 in CTGF(285-292) and Cys^325 in CTGF-(318-328) were replaced with Ser to prevent intra-chain disulfide bridging to Cys^287 or Cys^323 within the respective polypeptides. Heparin-binding properties were determined using an adaptation of the method of Baird et al. (Baird, A., et al. Proc. Natl. Acad. Sci. U.S.A. 85, 2324-2328(1988)). Briefly, 37.5 nmol of each polypeptide were absorbed in duplicate to nitrocellulose using a dot-blot apparatus. The blot was blocked for 30 min. with 10 mM Tris-HCl, 0.15 M NaCl, 0.1% bovine serum albunin (pH 7.4) and then incubated for 3 hr. at room temperature in this solution containing 10 μCi/ml [^3H]heparin (NEN Life Science Products). The blot was washed four times with 10 mM Tris-HCl, 0.15 M NaCl, and individual dots were mixed with scintillation fluid for counting of [^3H].

[2] = system: bovine capillary endothelial cells (BCECs); test: BCEC DNA synthesis assay; assay type: cell-based
Protocol: (§1) Target cell specificity was studied using Balb/c 3T3 cells, bovine capillary endothelial cells (BCECs), and vascular smooth muscle cells. 3T3 cells were utilized as described above. BCECs were obtained from Dr. J. Folkman (Children's Hospital, Boston, Mass.) and were maintained in gelatinized culture flasks in Dulbecco's modified Eagle's medium containing 3 ng/ml bFGF and 10% heat-inactivated bovine calf serum. Smooth muscle cells were isolated from a 2-3-cm length of pig thoracic aorta using established procedures (Weich, H. A., et al., Growth Factors 2, 313-320 (1990)) and maintained in 10% Dulbecco's modified Eagle's medium, 10% fetal bovine serum. BCEC and smooth muscle cell DNA synthesis assays were performed in 48- or 96-well plates essentially as described (Besner, G. E., Higashiyama, S., and Kagsbrun, M. Cell Regul. 1, 811-819 (1990)). BCEC DNA synthesis assays were also performed in the presence of 100 μg/ml porcine heparin.

Balb/c 3T3 fibroblasts = test: DNA synthesis ([3H]thymidine incorporation) assay in confluent quiescent Balb/c 3T3 cells; assay type: cell-based; settings: for [3H]Thymidine incorporation (mean ± S.D.): Balb/c 3T3 fibroblasts
Protocol: To assess the relative mitogenic capability of HBGFs with IGF-1, EGF, bFGF, and PDGF-AB, DNA synthesis assays on 3T3 cells were performed (Table 4). Biologically active fractions containing the 0.3-0.6 M NaCl eluate from the Bio-Rex column were pooled, diluted 3-fold with 20 mM Tris-HCL (pH 7.4) containing 0.1% CHAPS, passed through a 0.45-μm membrane filter, placed in a siliconized polypropylene vessel, and applied with a peristaltic pump to an EconoPac heparin column (0.7×3.6 cm; Bio-Rad) at 2 ml/min. The heparin column was then washed with 50 ml of 20 mM Tris-HCl buffer, 0.2 M NaCl, 0.1% CHAPS and developed at 1 ml/min with a 40 ml gradient of 0.1-2.0 M NaCl in 20 mM Tris-HCl, 0.1% CHAPS (pH 7.4) using a fast protein liquid chromatography (FPLC) system (Pharmacia Biotech Inc.). Fractions (1 ml) were collected into siliconized tubes during NaCl gradient elution and tested for 3T3 cell mitogenic activity. Column fractions were tested for their ability to stimulate DNA synthesis as measured by [^3H]thymidine incorporation into the DNA of confluent quiescent Balb/c 3T3 cells grown in 200 μl of Dulbecco's modified Eagle's medium, 10% bovine calf serum in 96-well culture plates as described (Kim, G. Y., et al., Biol. Reprod. 52, 561-571 (1995)). Dose-response curves to purified growth factors from ULF were established by assaying each dose in triplicate, with data computed as mean±S.D. Statistical significance of the effects of 1-100 μg/ml porcine heparin (Sigma) on growth factor activity was determined by Students' t test.

[3] = system: Vascular smooth muscle cells; test: Smooth muscle cell DNA synthesis assay; assay type: cell-based, pig; settings: 3 ng/ml
Protocol: as §1

[3H]Heparin bound (mean ± S.D.) [1]	Substance	further results
9 ± 1 cpm/μg	ACHYN [CTGF-(324-328)]	
237 ± 22 cpm/μg	FKCPDGEVMKKNMMFIKT (Ac-FKCPDGEVMKKNMMFIKT-NH2) [CTGF-(305-322)]	
8 ± 0.4 cpm/μg	GVCTDGRS (Ac-GVCTDGRS-NH2) [Ser^292 CTGF-(285-292)]	
10 ± 1 cpm/μg	HYNCPGDNDIFESLYYRKMYGDMA (Ac-HYNCPGDNDIFESLYYRKMYGDMA-OH) [CTGF-(326-349)]	
9 ± 0.5 cpm/μg	LYYRKMYGDMA (Ac-LYYRKMYGDMA-OH) [CTGF-(339-349)]	
475 ± 116 cpm/μg	MFIKTCA (Ac-MFIKTCA-NH2) [CTGF-(318-324)]	
601 ± 40 cpm/μg	MFIKTCASHYN (Ac-MFIKTCASHYN-NH2) [Ser^325 CTGF-(318-328)]	
71 ± 2 cpm/μg	PDGEVMKKNMMFIKT (Ac-PDGEVMKKNMMFIKT-NH2) [CTGF-(308-322)]	
10 ± 0.5 cpm/μg	PGDNDIFESLY (Ac-PGDNDIFESLY-NH2) [CTGF-(330-340)]	
11 ± 0.4 cpm/μg	TPHRTTTLPVEFK (Ac-TPHRTTTLPVEFK-NH2) [CTGF-(294-306)]	

Further lines, the substance ahead of its results:

Substance	[3H]Heparin bound (mean ± S.D.) [1]	further results
CTPHRTTTLPVEFK (Ac-CTPHRTTTLPVEFK-NH2) [CTGF-(293-306)]	9 ± 1.1 cpm/μg	
EENIKKGKK [CTGF-(247-255)]	10 ± 0.3 cpm/μg	
EENIKKGKKCIRTP [CTGF-(247-260)]	836 ± 1 cpm/μg	
GVCTDGR (Ac-GVCTDGR-NH2) [CTGF-(285-291)]	7 ± 0.3 cpm/μg	
IRTPKISKPIKFELSG (Ac-IRTPKISKPIKFELSG-NH2) [CTGF-(257-272)]	70 ± 13 cpm/μg	
TPKISKPIKFELSGCTS (Ac-TPKISKPIKFELSGCTS-NH2) [CTGF-(259-275)]	124 ± 3 cpm/μg	
TSMKTYRAKF (Ac-TSMKTYRAKF-NH2) [CTGF-(274-283)]	388 ± 12 cpm/μg	
TSMKTYRAKFCGV (Ac-TSMKTYRAKFCGV-NH2) [CTGF-(274-286)]	1108 ± 119 cpm/μg	
aFGF: acidic fibroblast growth factor		[3H]Thymidine incorporation (mean ± S.D.) ([2]; 3 ng/ml): 603 ± 46 Cpm/well; [3H]Thymidine incorporation (mean ± S.D.) ([2]; 3 ng/ml + 100 μg/ml heparin): 2,232 ± 236 Cpm/well
basic fibroblast growth factor [bFGF]		[3H]Thymidine incorporation (mean ± S.D.) (Balb/c 3T3 fibroblasts; 10 ng/ml): 73,853 ± 3,122 Cpm/well; [3H]Thymidine incorporation (mean ± S.D.) [3]: 3,082 ± 374 Cpm/well; [3H]Thymidine incorporation (mean ± S.D.) ([2]; 3 ng/ml): 2,865 ± 276 Cpm/well; [3H]Thymidine incorporation (mean ± S.D.) ([2]; 3 ng/ml + 100 μg/ml heparin): 1,840 ± 4 Cpm/well
epidermal growth factor [EGF, reference compound]		[3H]Thymidine incorporation (mean ± S.D.) (Balb/c 3T3 fibroblasts; 30 ng/ml): 11,550 ± 101 Cpm/well; [3H]Thymidine incorporation (mean ± S.D.) [3]: 1,343 ± 378 Cpm/well
heparin [reference compound]		Effect on basal or calf serum-stimulated DNA synthesis in 3T3 cells (Balb/c 3T3 fibroblasts; 1-100 μg/ml heparin): no effect; [3H]Thymidine incorporation (mean ± S.D.) ([2]; 100 μg/ml): 240 ± 52 Cpm/well
insulin-like growth factor [IGF-1, reference compound]		[3H]Thymidine incorporation (mean ± S.D.) (Balb/c 3T3 fibroblasts; 30 ng/ml): 4,412 ± 170 Cpm/well
platelet-derived growth factor [PDGF-AB, reference compound]		[3H]Thymidine incorporation (mean ± S.D.) (Balb/c 3T3 fibroblasts; 30 ng/ml): 110,110 ± 7,077 Cpm/well
